What all share (experiment): NCI tumour cell line growth inhibition, 48 h
For test [1], the system named is DMS 114 small cell lung.
Test [2] relates to HOP-18 NSCLC.
The test system of test [3] is KM20L2 colon.
Test [4] relates to LXFL 529 NSCLC.
The subject of test [5] is SNB-78 CNS.
The subject of test [6] is BT-549 breast.
Test [7] deals with DU-145 prostate.
For test [8], the system named is HS 578T breast.
Test [9] relates to NCI/ADR-RES ovarian.
Test [10] has as its system PC-3 prostate.

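Compound exposure: 48 hours, 5 concentrations, 96-well plates. GI50 = concentration required for 50% inhibition of growth. TGI denotes the concentration required for complete inhibition of growth.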

Turning to `C/C(=N/NC(=O)C[N+](C)(C)C)C(CN(C)C)C(=O)Nc1ccccc1` (configuration not stated), the TGI in test [1], in test [2], in test [3] and in test [4] was more than 100 µM throughout.

Regarding `C/C(=N\NC(=O)CC#N)c1c(O)cc(C)oc1=O`, the TGI in test [2], in test [3], in [4] and in test [5] was more than 100 µM in each case.

Consider `CN(C)C(=S)/N=c1\ssc(=S)n1Cc1ccncc1`, for which the TGI in test [1] is 7.77 µM; in [2], 57.6 µM; in test [3], more than 100 µM; in test [4], 82.1 µM; in [5], more than 100 µM.

As to `CCOC(=O)C1SC(=Nc2ccc(Cl)cc2)N=C1C` (configuration not stated), the TGI was 81 µM in test [1], 42.5 µM in [2], 33.4 µM in test [3] and 89.3 µM in [5].

With `CSC(=NCCc1c[nH]c2ccccc12)NC#N`, the TGI in test [1], in test [3], in test [4] and in test [5] was more than 100 µM throughout.

Take `Cc1cc(N(CCC#N)CCC#N)ccc1/C=C(\NC(=O)/C=C/c1ccccc1)C(=O)NN`: the TGI was 80.4 µM in [6]; more than 100 µM in [1]; more than 100 µM in [7]; 77.5 µM in test [8]; more than 100 µM in test [3]; more than 100 µM in test [4]. In addition, the TGI in test [9], in test [10] and in [5] was more than 100 µM in each case.

With `CC(=O)OCC1OC(N2C(=O)C(=O)c3ccccc32)C(OC(C)=O)C(OC(C)=O)C1OC(C)=O` (configuration not stated), the TGI in [1], in test [3] and in [4] was more than 100 µM each time.

For `CSC1=Nc2ccccc2N=C(c2ccc(Cl)cc2)C1`, the TGI in [2], in test [3], in [4] and in test [5] was more than 100 µM throughout.

Regarding `COc1cc2c(cc1OC)C(C(=O)c1cccc(OC)c1OC)C(=O)N(C)CC2` (configuration not stated), the TGI in [1], in test [2], in test [3] and in test [4] was more than 100 µM throughout.

For the compound `COC(=O)C1(C)Cc2cc(OC(C)=O)c(OC(C)=O)cc2N1` (configuration not stated), the GI50 in test [6] was 4.93 µM; in test [7], 14.1 µM; in test [9], 16 µM; in test [10], 9.64 µM. In addition, the TGI in [6] was 22 µM; in test [7] it was more than 58.9 µM; in test [8], more than 24.1 µM; in test [9], more than 75.5 µM; in [10] it was more than 72.6 µM.

As to `O=S(=O)(NCCCNc1nccc(-c2c(-c3ccc(F)cc3)nc3sccn23)n1)c1ccc2ccccc2c1`, the GI50 in test [6] was 4.34 µM; in test [7], 5.53 µM; in test [8] it was 9.13 µM; in test [9], 3.89 µM; in [10], 4.36 µM. In addition, the TGI in test [6], in [7], in test [8], in test [9] and in test [10] was more than 100 µM each time.

Turning to `CSC(=S)N/N=C/c1nccc2ccccc12`, the TGI is 9.78 µM in [2], more than 27.6 µM in test [3], 24.6 µM in test [4] and 63.6 µM in test [5].

Consider `O=C1CCCCN1CCCCC#Cc1cccc(C#Cc2cccnc2)c1`, for which the GI50 in test [6] was 18.6 µM; in [7], 43.2 µM; in [8], 28.5 µM; in test [9], 17.5 µM; in test [10] it was 11.6 µM. Moreover, the TGI in test [6] was 74.7 µM; in [7] it was more than 100 µM; in [8] it was more than 100 µM; in test [9], 85.4 µM; in [10], more than 100 µM.

For the compound `CCN(C(=O)/C=C/c1ccco1)c1ccccc1`, the TGI in test [6], in [7], in test [8], in [9] and in test [10] was more than 100 µM throughout.

For the compound `O=c1c2cc(Br)ccc2nc(CCl)n1-c1ccc(O)c([N+](=O)[O-])c1`, the TGI in [3] was more than 100 µM; in [4], 39.9 µM; in test [5] it was 50.3 µM.

On to `CC(C)(C)OC(=O)NCCCCCCCn1c2c(c3ccccc3c1=O)C(=O)c1ccccc1-2`, for which the GI50 in test [6] was 22.4 µM; in [7], 31.8 µM; in test [8] it was 17.4 µM; in test [9], 26.1 µM; in test [10] it was 25.4 µM. Moreover, the TGI in [6] is 46.6 µM; in [7], more than 100 µM; in [8], 49.5 µM; in test [9], more than 100 µM; in [10] it was more than 100 µM.

For `CN(C)C(=O)O[C@H]1CN[C@H](C#Cc2cc3ncnc(Nc4ccc(OCc5cccc(F)c5)c(Cl)c4)c3s2)C1`, the GI50 is 4 µM in test [6]; 9.76 µM in test [7]; 10.4 µM in test [8]; 9.82 µM in [9]; 5.44 µM in test [10]. Further, the TGI in test [6] is 10.2 µM; in [7], more than 25 µM; in test [8], more than 25 µM; in test [9], more than 25 µM; in [10], more than 25 µM.

With `CC(=O)/C(=C/c1ccccc1F)C(=O)c1ccccc1`, the TGI in test [6], in [7], in [8], in test [9] and in [10] was more than 100 µM in each case.

On to `O=c1oc2ccc(I)cc2c(=O)n1-c1ccc(Cl)cc1F`, for which the GI50 was 1.03 µM in test [6]; 2.28 µM in [7]; 0.688 µM in test [8]; 1.87 µM in [9]; 2 µM in test [10]. Further, the TGI in test [6] amounted to 3.8 µM; in test [7] it was 21.7 µM; in test [8] it was 8.66 µM; in test [9], 21.7 µM; in test [10], 7.11 µM.

Source of the values: PubChem BioAssay (NCI).
